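Where inhibition never reached the appropriate level, the endpoint shown equals the highest concentration tested. Otherwise, values were interpolated linearly from a five-concentration, 48-hour dose response in 96-well plates. At the TGI there is no net growth.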
Key:
Assay in all cases: inhibition of tumour cell growth, NCI panel, 48 h
SW-620 colon = system: SW-620 colon
CAKI-1 renal = system: CAKI-1 renal
HCT-15 colon = system: HCT-15 colon
HS 578T breast = system: HS 578T breast
IGROV1 ovarian = system: IGROV1 ovarian
786-0 renal = system: 786-0 renal
HL-60(TB) leukemia = system: HL-60(TB) leukemia
SK-MEL-28 melanoma = system: SK-MEL-28 melanoma
U251 CNS = system: U251 CNS
UACC-62 melanoma = system: UACC-62 melanoma
LOX IMVI melanoma = system: LOX IMVI melanoma
BT-549 breast = system: BT-549 breast
MDA-MB-435 = system: MDA-MB-435
RPMI-8226 leukemia = system: RPMI-8226 leukemia
HOP-62 NSCLC = system: HOP-62 NSCLC
SK-OV-3 ovarian = system: SK-OV-3 ovarian
EKVX NSCLC = system: EKVX NSCLC
MOLT-4 leukemia = system: MOLT-4 leukemia
SNB-19 CNS = system: SNB-19 CNS
HOP-92 NSCLC = system: HOP-92 NSCLC

Compound | TGI (SW-620 colon) [µM] | TGI (CAKI-1 renal) [µM] | TGI (HCT-15 colon) [µM] | TGI (HS 578T breast) [µM] | TGI (IGROV1 ovarian) [µM] | TGI (786-0 renal) [µM] | TGI (HL-60(TB) leukemia) [µM] | TGI (SK-MEL-28 melanoma) [µM] | TGI (U251 CNS) [µM] | TGI (UACC-62 melanoma) [µM] | TGI (LOX IMVI melanoma) [µM] | TGI (BT-549 breast) [µM] | TGI (MDA-MB-435) [µM] | TGI (RPMI-8226 leukemia) [µM] | TGI (HOP-62 NSCLC) [µM] | TGI (SK-OV-3 ovarian) [µM] | TGI (EKVX NSCLC) [µM] | TGI (MOLT-4 leukemia) [µM] | TGI (SNB-19 CNS) [µM] | TGI (HOP-92 NSCLC) [µM]
CCOC(=O)c1nnsc1NN=C(C)C | > 100 | > 100 | > 100 | > 100 | > 100 | > 100 | > 100 | > 100 | > 100 | > 100 | > 100 | > 100 | > 100 | > 100 | > 100 | > 100 | > 100 | > 100 | – | –
COc1ccc2c(c1)CCN1CCCc3ccc(OC)cc3C21 (stereo not given) | > 100 | > 100 | > 100 | > 100 | > 100 | > 100 | – | > 100 | > 100 | > 100 | > 100 | 89.3 | > 100 | > 100 | > 100 | > 100 | > 100 | > 100 | > 100 | > 100
NC(=O)CCC(CCC(N)=O)(CCC(N)=O)[N+](=O)[O-] | > 100 | > 100 | > 100 | > 100 | > 100 | > 100 | > 100 | – | > 100 | > 100 | – | > 100 | > 100 | > 100 | – | > 100 | > 100 | > 100 | > 100 | > 100
CC1OC(OC2C(CO)OC(O[C@H]3CC[C@@]4(C)C(=CC[C@H]5[C@@H]6C[C@@H]7O[C@](O)(CC[C@H](C)COC8OC(CO)C(O)C(O)C8O)[C@@H](C)[C@@H]7[C@@]6(C)CC[C@@H]54)C3)C(OC3OC(C)C(O)C(O)C3O)C2O)C(O)C(O)C1O (stereo not given in full) | 4.02 | 3.61 | 10 | 6.71 | 23.1 | 5.72 | > 100 | 12 | > 33 | > 50.4 | 4.9 | 18 | 7.03 | 17.4 | 6.04 | 6.12 | > 100 | – | 8.65 | 12.7
O=P(c1ccccc1)(c1ccccc1)c1ccc2c(c1)OCCOCCOCCOCCO2 | > 100 | > 100 | > 100 | > 100 | > 100 | > 100 | > 100 | > 100 | – | > 100 | > 100 | > 100 | > 100 | > 100 | > 100 | > 100 | > 100 | > 100 | > 100 | –
Cc1cn([C@H]2C[C@@H]3[C@@H](COC(CCl)N3O)O2)c(=O)[nH]c1=O (stereo not given in full) | > 100 | > 100 | > 100 | > 100 | > 100 | > 100 | > 100 | > 100 | > 100 | > 100 | > 100 | > 100 | > 100 | > 100 | > 100 | > 100 | > 100 | > 100 | > 100 | –
CCC(CCN)(CCN)[N+](=O)[O-] | > 100 | > 100 | > 100 | > 100 | > 100 | > 100 | > 100 | – | > 100 | > 100 | – | > 100 | > 100 | > 100 | – | > 100 | > 100 | > 100 | – | > 100
CC(C)[Si](OC1=C(c2ccccc2)C(NC(=O)/C=C/c2ccc([N+](=O)[O-])cc2)CCC1)(C(C)C)C(C)C (stereo not given) | > 100 | – | > 100 | > 100 | > 100 | > 100 | > 100 | – | > 100 | > 100 | > 100 | > 100 | > 100 | > 100 | > 100 | > 100 | > 100 | > 100 | > 100 | > 100
C/C=N\n1c(C)c(C#N)c(C#N)c1N | > 100 | > 100 | > 100 | > 100 | > 100 | > 100 | > 100 | – | > 100 | > 100 | > 100 | > 100 | > 100 | > 100 | > 100 | > 100 | > 100 | > 100 | > 100 | > 100
COc1cc2c(cc1OC)-c1c(oc3cc(OC4OC(CO)C(O)C(O)C4O)c(OC)cc3c1=O)C(O)O2 (stereo not given) | > 100 | > 100 | > 100 | > 100 | > 100 | > 100 | > 100 | > 100 | > 100 | > 100 | > 100 | > 100 | > 100 | > 100 | > 100 | > 100 | > 100 | – | > 100 | > 100
c1ccc2sc(C3(N4CCC5(CC4)OCCO5)CCCCC3)cc2c1 | > 100 | > 100 | > 100 | > 100 | > 100 | > 100 | 54.9 | > 100 | – | > 100 | > 100 | > 100 | > 100 | > 100 | > 100 | > 100 | > 100 | > 100 | > 100 | > 100
CCC12CC(c3ccccc3)C(C(=O)N1)C(=O)N2 (stereo not given) | > 100 | > 100 | > 100 | > 100 | > 100 | > 100 | > 100 | > 100 | > 100 | > 100 | – | > 100 | > 100 | > 100 | > 100 | > 100 | > 100 | > 100 | > 100 | > 100

Reference: PubChem BioAssay (NCI)
